# Reference: patent publication US11993561B2, “Expectorant compound, preparation method thereof and use thereof” (priority 2019, dated 2024)
# Where a name gives a salt, the structure may show the parent alone.
# Tests used:
# Assay type in all cases: in vivo
# mice = assay: Expectorant test in mice using a phenol red method; details: for Expectorant effect (secretion of phenol red in tracheal segment), result in words: comparison between groups; for Tracheal phenol red excretion: n=10, phenol red i.p. 1 h after dosing, sacrifice 0.5 h later
# Method: In Vivo Pharmacodynamic Test—Expectorant Test in Mice Using a Phenol Red Method
# In this example, the in vivo efficacy of the compounds I1, I4, I13 of the present disclosure and known compounds was tested.
# Mice in the positive control group were give medicinal ammonium chloride and ambroxol hydrochloride orally, mice in the normal control group were given normal saline of the same amount, and mice the other groups were given corresponding drugs by gavage. The mice were administered by gavage once in the morning and afternoon (excluding ammonium chloride) 2 days before the experiment. After 1 hour of intragastric administration on the morning of the experiment, the mice were intraperitoneally injected with 0.5 ml of phenol red, and the mice were sacrificed 0.5 hours later. The tissue surrounding the organs was peeled off, and a section of the trachea from the thyroid cartilage to the branch of the trachea was cut off and placed in a test tube containing 2 ml of normal saline. The tube was shaken for 30 minutes, the trachea was discarded, and 0.2 ml of sodium hydroxide (1 mol/L) was added to each sample solution. The OD value was measured using a UV-visible spectrophotometer at a wavelength of 546 nm, and the absorbance values were converted into the phenol red content according to the phenol red standard curve.
# The data was processed by PEMS medical statistical software.
# [1] = Acute toxicity test in mice administered intravenously; details: male, ICR, mouse, in vivo, iv
# Method: (§1) Acute toxicity test of the compound of the present disclosure to mice administered intravenously
# (§2) To test the acute toxicity of compounds of the present disclosure and comparative compounds, the following experiments were performed.
# (§3) Compounds of the present disclosure were dissolved in water and administered to 5 ICR mice (mice of 5-week old, male, weighing 20 g±2 g). Intravenous administration was performed to determine the median lethal dose (LD50, mg/kg). Ambroxol hydrochloride was used as a control.
# ICR mice = assay: as above; details: ICR mice, intravenous
# Method: as §1, §2, §3
# [2] = gavage, dose 2.0 ml/kg (high dose)
# [3] = gavage, dose 0.5 ml/kg (low dose)
smiles,measurement,setting,value
"Nc1c(Br)cc(Br)cc1CN[C@H]1CC[C@H](O)CC1 [Ambroxol, ambroxol hydrochloride, reference compound]","Expectorant effect (secretion of phenol red in tracheal segment), result in words",mice,best effect
same,Tracheal phenol red excretion,mice; [2],1.418 ± 0.352 ΔΔ** mg/L
same,LD50,[1],268 mg/kg
"Nc1c(Br)cc(Br)cc1CN[C@H]1CC[C@H](SCCCO)CC1 [I13, trans 3-[4-(2-amino-3,5-dibromo-benzylamino)-cyclohexylsulfanyl]-propan-1-ol]",Dose-effect relationship of expectorant effect,mice; 0.5 vs 2.0 ml/kg,relatively obvious dose-effect relationship
same,"Expectorant effect (secretion of phenol red in tracheal segment), result in words",mice,strongest effect
same,Tracheal phenol red excretion,mice; [3],1.452 ± 0.351 ΔΔ** mg/L
same,Tracheal phenol red excretion,mice; [2],1.826 ± 0.334 ΔΔ** mg/L
same,"LD50 compared with ambroxol hydrochloride, in words",ICR mice,much higher
same,LD50,[1],507 mg/kg
"Cl.Nc1c(Br)cc(Br)cc1CN[C@H]1CC[C@H](S)CC1 [I1, trans-4-[(2-amino-3,5-dibromo-benzyl)amino]-cyclohexanethiol hydrochloride]","Expectorant effect (secretion of phenol red in tracheal segment), result in words",mice,best effect
same,Tracheal phenol red excretion,mice; [3],1.225 ± 0.337 ΔΔ** mg/L
same,Tracheal phenol red excretion,mice; [2],1.610 ± 0.284 ΔΔ** mg/L
same,"LD50 compared with ambroxol hydrochloride, in words",ICR mice,much higher
same,LD50,[1],453 mg/kg
"Cl.N [Ammonium chloride, ammonium chloride, reference compound]",Tracheal phenol red excretion,"mice; oral, dose 1.0 ml/kg",0.875 ± 0.208 ΔΔ** mg/L
"CN(Cc1cc(Br)cc(Br)c1N)[C@H]1CC[C@H](S)CC1.Cl [I4, trans-4-[(2-amino-3,5-dibromo-benzyl)-methyl-amino]-cyclohexanethiol hydrochloride]",Tracheal phenol red excretion,mice; [3],1.083 ± 0.312 ΔΔ** mg/L
same,Tracheal phenol red excretion,mice; [2],1.273 ± 0.275 ΔΔ** mg/L
same,"LD50 compared with ambroxol hydrochloride, in words",ICR mice,much higher
same,LD50,[1],523 mg/kg
"CC(=O)N[C@@H](CS)C(=O)O [Acetylcysteine, acetylcysteine, reference compound]",Tracheal phenol red excretion,mice; [2],1.532 ± 0.247 ΔΔ** mg/L
